Read-outs that look alike come from different tables or passages of the source.
Columns and labels:
[1] = target: human TS (thymidylate synthase) (Homo sapiens, UniProt P04818); experiment: Inhibition constants against 5,10-methylenetetrahydrofolate for thymidylate synthase, human enzyme (tritium release); assay type: biochemical; details: cofactor as variable substrate, pH 7.6, 24° C.
Experimental: (§1) Determination of Inhibition Constants Against 5,10-Methylenetetrahydrofolate for the Enzyme Thymidylate Synthase
(§2) Inhibition constants, Ki, slope and Ki, intercept [W. W. Cleland, Biochim. Biophys. […] The cofactor was present as the variable substrate under conditions of saturating radiolabelled 2'-deoxyuridine 5-monophosphate (dUMP). […] Assays of human TS also contained 1-5 μg/mL bovine serum albumin to stabilize the protein. Reactions were initiated by the addition of enzyme and were carried out for 5 minutes at 24° C., and then quenched by the addition of charcoal (15 mg in 0.1 mL H2 O). The quenched samples were centrifuged at 10,000 rpm for 12-15 min at […] to remove unreacted dUMP which had bound to the charcoal, and 0.1 mL of the supernatant was counted by liquid scintillation in the presence of 5 mL ecolume to determine the release of tritium label from the 5-position of the dUMP. […] Experimental results were analyzed by EZ-FIT, a nonlinear regression analysis program (Perrella Scientific, Springfield, Pa.) which was used to fit all data points simultaneously to a mixed noncompetitive inhibition scheme.

[2] = test system: L1210 murine leukemia cells; experiment: Inhibition of growth of tumor cells, L1210 murine leukemia (MTT); assay type: cell-based; details: for IC50: read-out: Cell Culture IC50, L1210; for inhibition at 50 µM: read-out: growth inhibition, L1210
Experimental: (§3) In Vitro Testing to Determine Inhibition of Growth of Tumor Cells
(§4) Growth was measured over 3 days (L1210) or 5 days (CCRF-CEM, GC3 /M TK^-) of continuous exposure to varying concentrations of each test compound, added 4 h. after initial cell plating, by the MTT-tetrazolium reduction assay of T. J. Mosmann [J. Immunol. Meth. […] Water insoluble derivatives were dissolved in DMSO and diluted to a final concentration of 0.5% solvent in cell cultures.

CCRF-CEM cells = experiment: Inhibition of growth of tumor cells, CCRF-CEM human lymphoblastic leukemia (MTT); assay type: cell-based; details: for IC50: read-out: Cell Culture IC50, CCRF-CEM; for inhibition at 50 µM: read-out: growth inhibition, CCRF-CEM
Experimental: as §3, §4

GC3/M TK- cells = experiment: Inhibition of growth of tumor cells, thymidine kinase-deficient human colon adenocarcinoma GC3/M TK- (MTT); assay type: cell-based; details: for IC50: read-out: Cell Culture IC50, GC3-M (TK-)
Experimental: as §3, §4

[3] = target: E. coli TS (thymidylate synthase) (Escherichia coli, UniProt P0A884); experiment: Inhibition constants against 5,10-methylenetetrahydrofolate for thymidylate synthase, E. coli enzyme (tritium release); assay type: biochemical
Experimental: as §1, §2

[4] = Ki Data, human thymidylate synthase
[5] = Mus musculus, L1210, 72 h, 3 days continuous exposure, MTT
[6] = Homo sapiens, CCRF-CEM, 120 h, 5 days continuous exposure, MTT
[7] = Homo sapiens, GC3/MTK-, 120 h, 5 days continuous exposure, MTT
[8] = read-out: Ki Data, human thymidylate synthase
[9] = Mus musculus, L1210, 72 h, @ > 50 μM, 3 days
[10] = Homo sapiens, CCRF-CEM, 120 h, @ > 50 μM, 5 days
[11] = 3 days continuous exposure, MTT
[12] = 5 days continuous exposure, MTT

Chain of E. coli TS (thymidylate synthase) (P0A884 whole entry): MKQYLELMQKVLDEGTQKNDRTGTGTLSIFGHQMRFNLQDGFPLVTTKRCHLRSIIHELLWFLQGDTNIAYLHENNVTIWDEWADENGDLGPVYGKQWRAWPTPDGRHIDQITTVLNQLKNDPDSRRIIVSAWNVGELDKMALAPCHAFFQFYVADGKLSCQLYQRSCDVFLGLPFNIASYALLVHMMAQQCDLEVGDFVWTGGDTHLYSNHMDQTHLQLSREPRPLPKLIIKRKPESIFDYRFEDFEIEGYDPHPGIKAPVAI
Chain of human TS (thymidylate synthase) (P04818 2-313 limits assumed): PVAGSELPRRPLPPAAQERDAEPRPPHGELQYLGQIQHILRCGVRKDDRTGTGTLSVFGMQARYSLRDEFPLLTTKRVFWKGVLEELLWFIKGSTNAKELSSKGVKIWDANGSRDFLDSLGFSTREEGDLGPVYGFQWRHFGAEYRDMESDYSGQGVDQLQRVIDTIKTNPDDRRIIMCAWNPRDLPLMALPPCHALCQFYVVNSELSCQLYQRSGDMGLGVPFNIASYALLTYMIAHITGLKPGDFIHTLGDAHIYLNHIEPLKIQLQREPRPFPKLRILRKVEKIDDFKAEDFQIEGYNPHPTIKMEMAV

Row | SMILES | Ki [1, 4] | IC50 [2, 5] | IC50 (CCRF-CEM cells; [6]) | IC50 (GC3/M TK- cells; [7]) | Ki [1, 8] | Ki [3] | other results
1 | Cc1nc2ccc(C)c(Sc3ccnc(N(C)C)c3)c2c(=O)[nH]1 [Compound 26A, 3,4-Dihydro-2,6-dimethyl-4-oxo-5-[4-(6-dimethylaminopyridylthio)]-quinazoline] | 0.079 µM | 4.05 µM | 10.5 µM | 18 µM | – | – | –
2 | COc1ccc2nc(C)[nH]c(=O)c2c1Sc1ccncc1 [Compound 13A, 3,4-Dihydro-6-methoxy-2-methyl-4-oxo-5-(4-pyridylthio)-quinazoline] | – | 21 µM | 26 µM | 32 µM | – | – | –
3 | Cc1nc2ccc(O)c(Sc3ccncc3)c2c(=O)[nH]1 [Compound 15A, 3,4-Dihydro-6-hydroxy-2-methyl-4-oxo-5-(4-pyridylthio)-quinazoline] | – | > 50 µM | > 50 µM | > 50 µM | 19 ± 11 µM | – | inhibition at 50 µM [2, 9]: 27%; inhibition at 50 µM (CCRF-CEM cells; [10]): 40%; inhibition at 50 µM (GC3/M TK- cells; Homo sapiens, GC3/MTK-, 120 h, @ > 50 μM, 5 days): 4%
4 | Cc1nc2ccc(C)c(Sc3ccc(C(=O)O)cc3)c2c(=O)[nH]1 [Compound 28A, 4-[(3,4-Dihydro-2,6-dimethyl-4-oxo-5-quinazolinyl)thio]-benzoic acid] | 0.115 µM | > 50 µM | > 50 µM | > 50 µM | – | – | inhibition at 50 µM [2, 9]: 27%; growth inhibition, CCRF-CEM (CCRF-CEM cells; @ > 50 μM, 5 days): none; growth inhibition, GC3-M (TK-) (GC3/M TK- cells; @ > 50 μM, 5 days): none
5 | Cc1nc2cccc(Sc3cc[n+](Cc4ccccc4)cc3)c2c(=O)[nH]1 [Compound 22A] | – | > 2.5 µM | > 2.5 µM | > 2.5 µM | 1.1 ± 0.3 µM | 9.3 ± 1.6 µM | inhibition at 2.5 µM ([2]; Mus musculus, L1210, 72 h, @ > 2.5 μM, 3 days): 4%; growth inhibition, CCRF-CEM (CCRF-CEM cells; @ > 2.5 μM, 5 days): none; growth inhibition, GC3-M (TK-) (GC3/M TK- cells; @ > 2.5 μM, 5 days): none
6 | Cc1nc2cccc(Cn3cncc3-c3ccccc3)c2c(=O)[nH]1 [Compound 31A] | – | 48 µM | > 50 µM | > 50 µM | 51 ± 2.2 µM | 21 ± 6 µM | –
7 | Cc1ccc2nc(N)[nH]c(=O)c2c1Sc1ccncc1 [Compound 24A] | – | 0.55 µM | 1.1 µM | 1.2 µM | – | – | –
8 | Cc1nc2ccc(C)c(Sc3nnc(C)s3)c2c(=O)[nH]1 [Compound 11A] | – | > 3.33 µM | > 3.33 µM | > 3.33 µM | 2 ± 0.4 µM | 21 ± 13 µM | growth inhibition, L1210 ([2]; @ > 3.33 μM, 3 days): none; inhibition at 3.33 µM (CCRF-CEM cells; Homo sapiens, CCRF-CEM, 120 h, @ > 3.33 μM, 5 days): 17%; growth inhibition, GC3-M (TK-) (GC3/M TK- cells; @ > 3.33 μM, 5 days): none
9 | COc1ccc(-c2cncn2Cc2cccc3nc(C)[nH]c(=O)c23)cc1 [Compound 33A] | – | 25 µM | 18 µM | > 25 µM | 47 ± 17 µM | 36 ± 1.5 µM | inhibition at 25 µM (GC3/M TK- cells; Homo sapiens, GC3/MTK-, 120 h, @ > 25 μM, 5 days): 20%
10 | Cc1ccc2nc(N)[nH]c(=O)c2c1Sc1ccnnc1 [Compound 30A] | – | 1.6 µM | 0.88 µM | 1.5 µM | 0.011 µM | – | –
11 | Cc1nc2ccc(C)c(Sc3ccc([N+](=O)[O-])cc3)c2c(=O)[nH]1 [Compound 10A] | 0.083 ± 0.011 µM | 3 µM | 2.9 µM | > 4 µM | – | 0.75 ± 0.08 µM | –
12 | Cc1nc2ccc(C)c(Sc3ccc(C(=O)N[C@@H](CCC(=O)O)C(=O)O)cc3)c2c(=O)[nH]1 [Compound 27A, N-[4-((3,4-Dihydro-2,6-dimethyl-4-oxo-5-quinazolinyl)thio)benzoyl]-L-glutamic acid] | 0.00795 µM | 1.05 µM | 0.99 µM | 4.1 µM | – | – | –
13 | Cc1nc2ccc(C)c(Sc3ccncc3)c2c(=O)[nH]1 [Compound 8A, 3,4-Dihydro-2,6-dimethyl-4-oxo-5-(4-pyridylthio)-quinazoline] | 0.062 µM | 3.5 µM | 5.2 µM | 6 µM | – | 0.89 ± 0.28 µM | –
14 | Cc1nc2ccc(C)c(Sc3ccnnc3)c2c(=O)[nH]1 [Compound 29A] | – | – | – | > 12.5 µM | 0.12 ± 0.02 µM | – | –
15 | Cc1ccc2nc(N)[nH]c(=O)c2c1Sc1ccncc1 [Compound 25A] | – | – | – | – | – | – | IC50 [2, 11]: 0.59 µM; IC50 (CCRF-CEM cells; [12]): 1.1 µM; IC50 (GC3/M TK- cells; [12]): 1.7 µM
16 | Cc1nc2ccc(C)c(Sc3ccc(S(=O)(=O)c4ccccc4)cc3)c2c(=O)[nH]1 [Compound 9A] | – | 1.8 µM | 2.1 µM | 4.5 µM | – | – | –
17 | Cc1nc2ccc(C)c(Sc3cccnc3)c2c(=O)[nH]1 [Compound 21A] | 190 ± 25 µM | – | – | – | – | – | IC50 ([2]; Mus musculus, L1210, 72 h): > 50 µM; inhibition at 50 µM ([2]; Mus musculus, L1210, 72 h): 28%; IC50 (CCRF-CEM cells; Homo sapiens, CCRF-CEM, 120 h): > 50 µM; inhibition at 50 µM (CCRF-CEM cells; Homo sapiens, CCRF-CEM, 120 h): 42%; growth inhibition, GC3-M (TK-) (GC3/M TK- cells; @ > 50 μM, 5 days): none; IC50 (GC3/M TK- cells; Homo sapiens, GC3/MTK-, 120 h): > 50 µM
18 | Cc1ccc2nc(N)[nH]c(=O)c2c1Sc1ccnc(C(F)(F)F)c1 [Compound 18A, 2-Amino-3,4-dihydro-6-methyl-4-oxo-5-[4-(6-trifluoromethylpyridylthio)]-quinazoline] | – | 1.8 µM | > 2 µM | > 2 µM | – | – | inhibition at 2 µM (CCRF-CEM cells; Homo sapiens, CCRF-CEM, 120 h, @ > 2.0 μM, 5 days): 33%; inhibition at 2 µM (GC3/M TK- cells; Homo sapiens, GC3/MTK-, 120 h, @ > 2.0 μM, 5 days): 33%
19 | Cc1cc(Sc2c(C)ccc3nc(C)[nH]c(=O)c23)ccn1 [Compound 12A, 3,4-Dihydro-2,6-dimethyl-4-oxo-5-[4-(2-picolinylthio)]-quinazoline] | 0.07 ± 0.001 µM | 4.2 µM | 4.2 µM | 5 µM | – | 0.55 ± 0.05 µM | –
20 | Cc1nc2ccc(C)c(Sc3ccnc(C(F)(F)F)c3)c2c(=O)[nH]1 [Compound 17A, 3,4-Dihydro-2,6-dimethyl-4-oxo-5-[4-(6-trifluoromethylpyridylthio)]-quinazoline] | – | – | – | – | 0.13 ± 0.03 µM | – | –
21 | Cc1nc2cccc(Cn3ccc4cc(Cl)ccc43)c2c(=O)[nH]1 [Compound 3A, 5-Chloro-N-[(3,4-dihydro-2-methyl-4-oxo-5-quinazolyl)methyl]indole] | – | – | > 12.3 µM | > 12.7 µM | > 3 µM | > 3 µM | inhibition at 12.3 µM (CCRF-CEM cells; Homo sapiens, CCRF-CEM, 120 h, > 12.3 μM, 5 days): 10%; inhibition at 12.7 µM (GC3/M TK- cells; Homo sapiens, GC3/MTK-, 120 h, > 12.7 μM, 5 days): 20%
22 | Cc1nc2cccc(Cn3cncc3-c3ccc([N+](=O)[O-])cc3)c2c(=O)[nH]1 [Compound 32A] | – | > 10 µM | 6 µM | > 10 µM | > 10 µM | > 10 µM | inhibition at 10 µM (GC3/M TK- cells; Homo sapiens, GC3/MTK-, 120 h, @ > 10 μM, 5 days): 30%
23 | Cc1nc(O)c2c(Oc3ccccc3)cccc2n1 [Compound 1A] | – | – | – | – | – | > 100 µM | –
24 | Cc1nc(O)c2c(Sc3ccccc3)cccc2n1 [Compound 2A] | – | – | – | – | – | > 10 µM | –
25 | Cc1nc2ccc(C)c(Sc3ccncc3)c2c(=O)[nH]1 [Compound 23A] | 0.13 ± 0.009 µM | – | – | – | – | – | IC50 [2, 11]: 3.5 µM; IC50 (CCRF-CEM cells; [12]): 5.1 µM; IC50 (GC3/M TK- cells; [12]): 6.1 µM
26 | Cc1nc2cccc(Sc3ccccn3)c2c(=O)[nH]1 [Compound 20A] | 61 ± 17 µM | > 50 µM | > 50 µM | > 50 µM | – | 311 ± 99 µM | inhibition at 50 µM [2, 9]: 40%; inhibition at 50 µM (CCRF-CEM cells; [10]): 20%; growth inhibition, GC3-M (TK-) (GC3/M TK- cells; @ > 50 μM, 5 days): none
27 | COc1cc(Sc2c(C)ccc3nc(C)[nH]c(=O)c23)ccn1 [Compound 16A, 3,4-Dihydro-2,6-dimethyl-4-oxo-5-[4-(6-methoxypyridylthio)]quinazoline] | 0.048 ± 0.006 µM | – | – | > 5 µM | – | 0.76 ± 0.12 µM | –
28 | Cc1ccc2nc(N)[nH]c(=O)c2c1Sc1ccncc1 [Compound 14A, 2-Amino-3,4-dihydro-6-methyl-4-oxo-5-(4-pyridylthio)-quinazoline] | – | 1 µM | 0.81 µM | 1 µM | – | 0.15 ± 0.03 µM | –

From patent US5430148A, “Antiproliferative quinazolines” (Agouron Pharmaceuticals, Inc., priority 1992, dated 1995)
